{
  "source": "patent US20030083375A1",
  "about": "“11Beta-fluoro 15beta-hydroxy PGF2alpha analogs as FP receptor antagonists” (priority 1997, published 2003)",
  "key": {"FP receptor [1]": {"target": "T1, FP receptor (Rattus norvegicus, UniProt P43118)", "T1 construct": "Two cell lines containing the FP receptor have been extensively characterized by this method; host or cells: A7r5 rat thoracic aorta smooth muscle cells", "T1 sequence (P43118 whole entry)": "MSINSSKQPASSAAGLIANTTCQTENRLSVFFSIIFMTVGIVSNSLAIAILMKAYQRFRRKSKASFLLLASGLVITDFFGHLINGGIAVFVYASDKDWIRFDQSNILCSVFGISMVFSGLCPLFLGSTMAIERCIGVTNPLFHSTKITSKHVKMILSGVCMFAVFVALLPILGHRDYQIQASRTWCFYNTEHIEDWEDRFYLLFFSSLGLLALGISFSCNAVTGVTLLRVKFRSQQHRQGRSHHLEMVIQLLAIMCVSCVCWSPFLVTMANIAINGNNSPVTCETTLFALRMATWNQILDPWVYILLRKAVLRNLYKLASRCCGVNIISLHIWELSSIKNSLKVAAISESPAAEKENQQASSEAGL", "assay": "Agonist stimulation of [3H]IPs production in A7r5 cells", "format": "cell-based", "experimental": "(§1) Confluent monolayer cultures of cells (in a standard 24-well tissue culture plate) expressing the FP receptor are exposed to [^3H]-myo-inositol (1.5 μCi in a volume of 0.5 ml DMEM culture medium supplemented with 2 mM L-glutamine and 10 μg/ml gentamicin sulfate) in the absence of serum, which causes net incorporation of the radioisotope into the phosphotidylinositol membrane lipids. After 24-32 hrs, the medium with the radioisotope is removed and the cells are rinsed once with DMEM/F-12 medium containing 10 mM LiCl (assay medium). Then 0.5 ml of assay medium is added to each well of cells, followed by addition of varying concentrations of an FP receptor agonist (or other test compound). Cells are exposed to the test agent for 30-120 min in a humidified incubator (95% air/5% CO2), maintained at 37° C. Then the assay medium is removed and 1 ml of 0.1 M formic acid is added to the cell monolayer to inactivate the phospholipase C release the radiolabelled products into the assay medium. The presence of LiCl during the agonist stimulation period inhibits phosphatases and permits the accumulation of radiolabelled inositol phosphates (IPs) which is measured by ion exchange chromatography.\nThe agonist-dependent production of IPs, which reflects the degree of receptor activation, is quantitatively measured for each well of cells in the 24-well plate by separating the negatively charged radiolabelled IPs from other minor radiolabelled species and free [^3H]-myo-inositol by anion exchange chromatography. […] These samples, i.e., the radiolabelled IPs formed by the cells in response to stimulation by an FP prostaglandin receptor agonist or other test agent, is then measured by scintillation spectrometry on a beta-counter.\nThe dependence of the level of the [^3H]IPs production on agonist concentration is analyzed by standard pharmacological methods to determine the potency (EC50 value) and efficacy (maximum response; Emax) of the FP receptor agonist relative to a standard FP receptor agonist such as fluprostenol. […]"}, "FP receptor [2]": {"target": "T1, FP receptor", "assay": "Antagonism of fluprostenol-stimulated [3H]IPs production in A7r5 cells", "format": "cell-based", "experimental": "as §1\nThe agonist-dependent production of IPs, which reflects the degree of receptor activation, is quantitatively measured for each well of cells in the 24-well plate by separating the negatively charged radiolabelled IPs from other minor radiolabelled species and free [^3H]-myo-inositol by anion exchange chromatography. This is accomplished by adding 0.9 ml of the cell lysate obtained as described above to a column packed with 1 ml of AG 1-X8 anion exchange resin in the formate form. The elution and separation of the radiolabelled IPs from the column consists of sequential additions to the column of: 1) 10 ml of water; 2) 8 ml of 50 mM ammonium formate; and 3) 4 ml of 1.2 M ammonium formate solution containing 0.1 M formic acid. The first two washes are discarded, and the third is collected in a scintillation vial, to which is added 15 ml of a water-accepting scintillation fluid. These samples, i.e., the radiolabelled IPs formed by the cells in response to stimulation by an FP prostaglandin receptor agonist or other test agent, is then measured by scintillation spectrometry on a beta-counter.\nThe dependence of the level of the [^3H]IPs production on agonist concentration is analyzed by standard pharmacological methods to determine the potency (EC50 value) and efficacy (maximum response; Emax) of the FP receptor agonist relative to a standard FP receptor agonist such as fluprostenol. […] The agonist stimulation is then continued for the standard time (30-120 min), after which the procedure for quenching the reaction, separating the [^3H]IPs, and anion exchange chromatography is identical to the procedure described above. A compound is considered to be an antagonist in this protocol if it inhibits the agonist-stimulated [^3H]IPs production relative to the production measured in the control experiment (performed in parallel), in which the solvent is substituted for the antagonist.\nTwo different antagonist protocols are employed: 1) the antagonist concentration is varied while holding the agonist concentration fixed at a concentration approximately 10 times the agonist EC50 value and 2) the antagonist concentration is fixed in a given experiment, with the agonist concentration varied, and several such experiments, each with a different, fixed antagonist concentration, are performed. […] Overall, the Ki and Kb values are synonymous and represent the antagonist potency of the antagonist at equilibrium."}, "[3]": {"target": "FP prostaglandin receptor (Homo sapiens, UniProt P43088)", "sequence (P43088 whole entry)": "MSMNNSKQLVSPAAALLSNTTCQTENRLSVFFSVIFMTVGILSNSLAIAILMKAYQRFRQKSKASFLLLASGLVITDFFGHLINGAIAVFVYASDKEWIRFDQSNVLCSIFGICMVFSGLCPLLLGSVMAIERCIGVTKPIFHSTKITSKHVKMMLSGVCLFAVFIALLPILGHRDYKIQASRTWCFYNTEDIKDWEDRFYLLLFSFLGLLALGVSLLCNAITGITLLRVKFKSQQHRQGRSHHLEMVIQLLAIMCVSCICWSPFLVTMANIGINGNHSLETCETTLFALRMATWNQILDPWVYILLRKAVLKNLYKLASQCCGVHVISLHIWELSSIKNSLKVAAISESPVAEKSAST", "assay": "Selectivity for the FP prostaglandin receptor compared to other classes of prostaglandin receptors"}, "human ocular FP receptor": {"target": "T2, human ocular FP receptor (Homo sapiens, UniProt P43088)", "T2 construct": "expressed in transfected cells; host or cells: HEK-293 (human embryonic kidney)", "T2 sequence (P43088 whole entry)": "as above", "assay": "Antagonism of fluprostenol-induced [3H]IPs production in HEK-293 cells expressing recombinant human ocular FP receptor", "format": "cell-based", "experimental": "as §1, with “Then the assay medium is removed and 1 ml of 0.1 M formic acid is added to the cell monolayer to inactivate the phospholipase C release the radiolabelled products into the assay medium.” left out\nThe agonist-dependent production of IPs, which reflects the degree of receptor activation, is quantitatively measured for each well of cells in the 24-well plate by separating the negatively charged radiolabelled IPs from other minor radiolabelled species and free [^3H]-myo-inositol by anion exchange chromatography. […]"}},
  "note": "Where two headings read alike, the source gives them in different places.",
  "data": [
    {"smiles": "O=C(O)CCC/C=C\\C[C@@H]1[C@@H](/C=C/[C@@H](O)COc2cccc(C(F)(F)F)c2)[C@H](O)C[C@@H]1O", "note": "(racemic) [fluprostenol]", "values": [
      {"measurement": "Agonist classification (maximum effect relative to full agonists)", "setting": "FP receptor [1]", "value": "full agonist"}
    ]},
    {"smiles": "O=C(O)CCC/C=C\\C[C@@H]1[C@@H](/C=C/[C@H](O)C2Cc3ccccc3C2)[C@@H](F)C[C@@H]1O", "note": "[Compound III, (5Z,13E)-(9S,11S,15R)-9,15-Dihydroxy-11-fluoro-15-(2-indanyl)-16,17,18,19,20-pentanor-5,13-prostadienoic acid]", "values": [
      {"measurement": "Kb", "setting": "FP receptor [2]; Schild analysis, read-out: Kb, mol/L (potency as antagonist of the FP receptor)", "value": 250, "unit": "nM"},
      {"measurement": "Ki", "setting": "FP receptor [2]; fixed fluprostenol concentration about 10 times the agonist EC50, read-out: Ki (method of FIG. 2, antagonist concentration varied)", "value": "426 ± 63", "unit": "nM"},
      {"measurement": "Kb", "setting": "FP receptor [2]; fluprostenol agonist varied, fixed antagonist concentrations, n=4 experiments, read-out: Kb (Schild analysis)", "value": "285 ± 97", "unit": "nM"},
      {"measurement": "Fold higher potency as FP receptor antagonist than phloretin", "setting": "FP receptor [2]; from Table 1", "value": "> 10", "unit": "fold"},
      {"measurement": "Type of antagonism", "setting": "FP receptor [2]; shift of fluprostenol dose-response curves, maximal effect unaltered", "value": "competitive antagonist"},
      {"measurement": "Agonist classification (maximum effect relative to full agonists)", "setting": "FP receptor [1]", "value": "partial agonist"},
      {"measurement": "Selectivity for FP prostaglandin receptor versus other prostaglandin receptor classes", "setting": "[3]", "value": "relatively good selectivity"},
      {"measurement": "Antagonism of fluprostenol-induced [3H]IPs production", "setting": "human ocular FP receptor", "value": "behaved as an antagonist"}
    ]},
    {"smiles": "CCCCC[C@H](O)/C=C/[C@@H]1[C@@H](C/C=C\\CCCC(=O)N(C)C)[C@@H](O)C[C@H]1O", "note": "[PGF2α dimethyl amide, reference compound]", "values": [
      {"measurement": "Kb, mol/L (potency as antagonist of the FP receptor)", "setting": "FP receptor [2]; Schild analysis", "value": "Inactive"}
    ]},
    {"smiles": "CCCCC[C@H](O)/C=C/[C@@H]1[C@@H](C/C=C\\CCCCN(C)C)[C@@H](O)C[C@H]1O", "note": "[PGF2α dimethyl amine, reference compound]", "values": [
      {"measurement": "Kb, mol/L (potency as antagonist of the FP receptor)", "setting": "FP receptor [2]; Schild analysis", "value": "Inactive"}
    ]},
    {"smiles": "CCCCNC(=O)NS(=O)(=O)c1ccc(C)cc1", "note": "[Tolbutamide, reference compound]", "values": [
      {"measurement": "Kb, mol/L (potency as antagonist of the FP receptor)", "setting": "FP receptor [2]; Schild analysis", "value": "Inactive"}
    ]},
    {"smiles": "O=C(O)CCC/C=C\\CC1C(O)CC(O)C1/C=C/C(O)COc1cccc(Cl)c1", "note": "(stereo not shown) [cloprostenol]", "values": [
      {"measurement": "Agonist classification (maximum effect relative to full agonists)", "setting": "FP receptor [1]", "value": "full agonist"}
    ]}
  ]
}
